Test results taken from patent US20150291645A1, “ISOACTEOSIDE DERIVATIVE AND USE THEREOF” (Sinphar Pharmaceutical Co., Ltd., priority 2014, published 2015).

Assays:
[1] = system: Aβ40 degrading enzyme activity in Neuro-2a conditioned medium; assay: Aβ40 degradation in Neuro-2a conditioned medium (Human Aβ1-40 immunoassay); type: biochemical, mouse; conditions: 50 μM and 100 μM, 24 hours 37° C., FIG. 5
Description: Experimental method: 2×10^7 of mouse neuroblastoma cells (Neuro-2a) were placed on a T175 culture medium, and after overnight, the T175 culture medium was replaced with 30 mL of a chemical-defined medium incubating for 24 hours. After 24 hours, the chemical-defined medium incubated with the cells, which was called a conditioned medium, was centrifuged for 5 minutes at 13,000 rpm, and supernatant liquid was obtained. 10 ng of Aβ40 and testing medicine were added to 300 μL of the conditioned medium, and the mixture was reacted at 37° C. for 24 hours. Immunoassay kits (Human Aβ1-40 Immunoassay kits, Cat.KHB3482, Life Technologies) were used to measure the remaining amount of Aβ in each reaction to examine whether the medicine can improve the activity for enzyme in the medium to degrade Aβ. One not adding any testing medicine (i.e. only containing 10 ng of Aβ40) was a control, and the measured level of Aβ was set to 100%. The levels of Aβ after treated by the testing medicine were compared to the control and expressed in percentage. […] The statistical differences between the control and the testing samples were analyzed by Dunnett's multiple comparison test, which “*” represented p<0.05; “**” represented p<0.01; “***” represented p<0.001; and “****” represented p<0.0001.

β-amyloid peptides (Aβ) = conditions: position of the caffeoyl group (sixth vs fourth), WO 2011/157059 A1; cited from earlier work

| SMILES | extracellular Aβ40 degradation [1] | activity of inhibiting β-amyloid peptides (Aβ) accumulation (β-amyloid peptides (Aβ)) |
| --- | --- | --- |
| O=C(/C=C/c1ccc(O)c(O)c1)OCC1OC(OCCc2ccc(O)c(O)c2)C(O)C(O)C1O (centres unmarked) [Sample 9] | could effectively improve extracellular Aβ40 degradation |  |
| C[C@@H]1O[C@@H](O[C@@H]2[C@@H](O)[C@H](OCCc3ccc(O)c(O)c3)O[C@H](CO)[C@H]2OC(=O)/C=C/c2ccc(O)c(O)c2)[C@H](O)[C@H](O)[C@H]1O [acteoside] |  | the activity decreased |
